For experiment [1], the target named is T1, VASP/EVH1 domain (Homo sapiens, UniProt P50552).
T1 construct: the EVH1 domain of a completely ^15N-labelled VASP protein
Kind of experiment: Fluorescence titration of ligand peptides. In kind it is binding. The protocol:
Using the synthetic compound 85, ligand peptides with partially or completely replaced proline sequences were synthesized and investigated for their interaction with the EVH1 domain (pp=building block 85). […] The binding affinities were determined using NMR titration, the kinetic Biacore method, or by means of fluorescence titration.

The target in experiment [2] is Mena/EVH1 domain (Homo sapiens, UniProt Q8N8S7). Kind of experiment: biochemical.
Sequence of Mena/EVH1 domain (Q8N8S7 1-111 limits assumed): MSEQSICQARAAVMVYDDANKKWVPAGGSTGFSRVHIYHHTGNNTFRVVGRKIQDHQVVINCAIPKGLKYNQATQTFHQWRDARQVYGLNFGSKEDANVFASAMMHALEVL
Source text: (§1) Using a series of different test ligand peptides, it was also possible to gain an overview over the binding affinities.
Experiment [3] has as its target T1, VASP/EVH1 domain. In kind it is binding.
Source text: This can be seen in FIG. 2 wherein the class I EVH1 domain of the human VASP protein was investigated together with a short section from the ActA peptide (332[sequence]344).
as §1
Experiment [4] concerns the target T1, VASP/EVH1 domain. The experiment is described as follows: NMR titration (15N-1H-HSQC) of the VASP/EVH1 domain with ligand peptide. Conditions: Binding affinity (NMR), VASP/EVH1 domain in solution; KD from change in chemical shift versus ligand peptide concentration.
Procedure: The interactions between the EVH1 domain of a completely ^15N-labelled VASP protein and the ligand peptides I and II was elucidated using multidimensional NMR-spectroscopic methods. To this end, the EVH1 domain in a solution was titrated with varying amounts of ligand peptide and investigated by recording ^15N-^1H-HSQC-NMR spectra each time. In the event of positive binding interaction, increasing the ligand concentration step by step (10, 20, 50, 100, 200, 500 and 1000 μM) results in a clearly recognizable shift of some domain signals, which can be used to calculate values for the binding constant at a later point in time.
A continuous equilibrium, i.e. [EVH1]-ligand (bound) ? [EVH1]+ligand (unbound), is present in solution so that, depending on the rate of interchange of the ligands, different NMR spectra are obtained (in analogy to the signals of —OH and —NH in the one-dimensional range).
When correlating the changes in the chemical shift of the cross-peaks with the binding strength between domain and ligand peptide, it is possible to calculate values for the binding constant by plotting the change in shift Δδ versus the ligand peptide concentration.
The target of experiment [5] is T1, VASP/EVH1 domain. The experiment is described as follows: Biacore (surface plasmon resonance) binding of ligand peptides. To be noted: Binding affinity (Biacore), initial measurements yet remaining to be verified.
Source text: In this method the domain protein is immobilized on the surface of a sensor chip, while a solution of ligand peptide flows across the surface. By measuring the surface plasmon resonance that causes the refractive index to change, it is possible to monitor the binding kinetics in real-time so that the association and dissociation constants can also be determined.

No end group written: not given here.

T1 sequence (P50552 2-113): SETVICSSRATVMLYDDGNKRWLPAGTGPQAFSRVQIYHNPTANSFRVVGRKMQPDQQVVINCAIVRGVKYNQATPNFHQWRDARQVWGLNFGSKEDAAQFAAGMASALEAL

As to `CC(C)C[C@H](NC(=O)[C@H](CCC(=O)O)NC(=O)[C@H](CC(=O)O)NC(=O)[C@H](CCC(=O)O)NC(=O)[C@@H](NC(=O)[C@@H]1CC[C@@H]2C=C[C@H]3CCN(C(=O)[C@@H]4CC[C@@H]5C=C[C@H]6CCN(C(=O)[C@H](Cc7ccccc7)NC(=O)[C@H](CCC(=O)O)NC(=O)[C@H](Cc7ccccc7)NC(=O)[C@@H](N)CO)[C@@H]6C(=O)N54)[C@@H]3C(=O)N21)[C@@H](C)O)C(=O)O` [SFEFppppTEDEL], the Kd (in general, the free concentration of one partner at which half of the binding sites on the other are occupied at equilibrium, for simple one-to-one binding) in experiment [1] was found to be 45 ± 15 µM.

FPPPPT [FPPPPT] gave a Kd in experiment [2] of 417 µM. In experiment [3], the “binding affinity KD” value is “no measurable affinity”.

With `CC(C)C[C@H](NC(=O)[C@H](CCC(=O)O)NC(=O)[C@H](CC(=O)O)NC(=O)[C@H](CCC(=O)O)NC(=O)[C@@H](NC(=O)[C@@H]1CC[C@@H]2C=C[C@H]3CCN(C(=O)[C@@H]4CCCN4C(=O)[C@@H]4CCCN4C(=O)[C@H](Cc4ccccc4)NC(=O)[C@H](CCC(=O)O)NC(=O)[C@H](Cc4ccccc4)NC(=O)[C@@H](N)CO)[C@@H]3C(=O)N21)[C@@H](C)O)C(=O)O` [SFEFPPppTEDEL], the affinity in experiment [1], expressed as Kd, was 26 ± 5 µM.

With `CC(C)C[C@H](NC(=O)[C@H](CCC(=O)O)NC(=O)[C@H](CC(=O)O)NC(=O)[C@H](CCC(=O)O)NC(=O)[C@@H](NC(=O)[C@@H]1CCCN1C(=O)[C@@H]1CC[C@@H]2C=C[C@H]3CCN(C(=O)[C@@H]4CCCN4C(=O)[C@H](Cc4ccccc4)NC(=O)[C@H](CCC(=O)O)NC(=O)[C@H](Cc4ccccc4)NC(=O)[C@@H](N)CO)[C@@H]3C(=O)N21)[C@@H](C)O)C(=O)O` [SFEFPppPTEDEL], the Kd is 20 to 35 µM in experiment [4], 29.3 to 33.3 µM in experiment [5] and 47 ± 14 µM in experiment [1].

`CC(C)C[C@H](NC(=O)[C@H](CCC(=O)O)NC(=O)[C@H](CC(=O)O)NC(=O)[C@H](CCC(=O)O)NC(=O)[C@@H](NC(=O)[C@@H]1CCCN1C(=O)[C@@H]1CCCN1C(=O)[C@@H]1CC[C@@H]2C=C[C@H]3CCN(C(=O)[C@H](Cc4ccccc4)NC(=O)[C@H](CCC(=O)O)NC(=O)[C@H](Cc4ccccc4)NC(=O)[C@@H](N)CO)[C@@H]3C(=O)N21)[C@@H](C)O)C(=O)O` [SFEFppPPTEDEL] showed a Kd in experiment [1] of 82 ± 30 µM.
